In general, Km refers to the substrate concentration at which the rate is half of its maximum.

Each structure is given as a SMILES string.

Km data for 2 molecules are collected here from publication doi:10.1101/2023.05.30.542953v1 (biorxiv, 2023).

The test relates to LhCE. In words: UV-Vis Michaelis-Menten hydrolysis assay. The class given is biochemical, Lactobacillus helveticus. As to conditions: 50 mM HEPES pH 8, 21 °C, 10 nM enzyme.

`O=C(/C=C/c1ccc(O)c(O)c1)O[C@@H]1C[C@](O)(C(=O)O)C[C@@H](O)[C@H]1O` [chlorogenic acid]: the Michaelis constant (Km) worked out at 147 ± 41 µM.

In the case of `CCOC(=O)/C=C/c1ccc(O)c(OC)c1` [ethyl ferulate], the Km (substrate stock in 5% ethanol) was found to be 386 ± 46 µM.
